A word on the IC50: it is the concentration at which inhibition is half-maximal.

From patent US11098032B2, “Pyran dervatives as CYP11A1 (cytochrome P450 monooxygenase 11A1) inhibitors” (ORION CORPORATION, priority 2016, dated 2021) come the findings set out here.

The experiment has as its target T1, CYP11A1 (Homo sapiens, UniProt P05108).
T1 construct: human H295R adrenocortical carcinoma cell line was used as source of enzyme; endogenous in cells; host or cells: H295R human adrenocortical carcinoma cells
T1 sequence (P05108 40-521): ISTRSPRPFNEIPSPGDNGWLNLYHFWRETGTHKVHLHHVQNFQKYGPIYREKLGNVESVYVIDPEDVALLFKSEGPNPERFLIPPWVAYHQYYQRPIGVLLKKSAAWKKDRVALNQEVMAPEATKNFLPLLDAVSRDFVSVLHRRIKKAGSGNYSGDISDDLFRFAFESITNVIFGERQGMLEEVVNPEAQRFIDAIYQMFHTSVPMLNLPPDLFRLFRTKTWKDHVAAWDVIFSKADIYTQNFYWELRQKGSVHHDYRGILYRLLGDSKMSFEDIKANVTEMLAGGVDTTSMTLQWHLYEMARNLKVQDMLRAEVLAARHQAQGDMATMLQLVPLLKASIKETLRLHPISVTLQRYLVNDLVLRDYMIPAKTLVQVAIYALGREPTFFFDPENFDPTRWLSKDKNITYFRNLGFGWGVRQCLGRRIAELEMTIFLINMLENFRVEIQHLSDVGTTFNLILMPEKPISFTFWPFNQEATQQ
The experiment can be described thus: CYP11A1 inhibition: modified isocaproic acid release assay (IARA) in H295R cells. It is filed as cell-based. Conditions: human H295R adrenocortical carcinoma cells treated three days, 3 nM [24,25-3H]-labelled cholesterol, 1% DMSO, 10 concentrations in duplicates; read-out: IC50 of the test compounds on CYP11A1 inhibition. The method, boiled down: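 H295R adrenocortical cells treated three days with test compounds at 10 concentrations in duplicate plus 3 nM [24,25-3H]-cholesterol, 1% DMSO final. Released radiolabelled isocaproic acid measured by scintillation counting after dextran-coated charcoal extraction; IC50 determined.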
As for `CS(=O)(=O)N1CCC(COc2coc(CN3Cc4cc(F)c(F)cc4C3)cc2=O)CC1` [Compound 210, 2-((5,6-Difluoroisoindolin-2-yl)methyl)-5-((1-(methylsulfonyl)piperidin-4-yl)methoxy)-4H-pyran-4-one], the IC50 lay in the range of 150 to 300 nM.

For the molecule `Cc1ccc(S(=O)(=O)N=S(C)c2ccc(COc3coc(CN4Cc5ccccc5C4)cc3=O)cc2)cc1` (stereo not drawn) [Compound 93, N-{[4-({[6-(1,3-dihydro-2H-isoindol-2-ylmethyl)-4-oxo-4H-pyran-3-yl]oxy}-methyl)phenyl](methyl)-λ^4-sulfanylidene}-4-methylbenzenesulfonamide], the IC50 is less than 150 nM.

On to `O=c1cc(CN2Cc3ccccc3C2)occ1OCc1ccc(C2(O)COC2)cc1` [Compound 114, 5-((4-(3-Hydroxyoxetan-3-yl)benzyl)oxy)-2-(isoindolin-2-ylmethyl)-4H-pyran-4-one], for which the IC50 was less than 150 nM. For `CCCC(=O)N1CCC(COc2coc(CN3Cc4ccccc4C3)cc2=O)CC1` [Compound 221, 5-((1-Butyrylpiperidin-4-yl)methoxy)-2-(isoindolin-2-ylmethyl)-4H-pyran-4-one] the value was less than 150 nM.

As to `O=C(COc1coc(CN2Cc3ccccc3C2)cc1=O)N1CCN(Cc2ccccc2)CC1` [Compound 153, 5-(2-(4-Benzylpiperazin-1-yl)-2-oxoethoxy)-2-(isoindolin-2-ylmethyl)-4H-pyran-4-one], the IC50 lay within 301 to 2000 nM. For `CN(C)S(=O)(=O)N1CCC(COc2coc(CN3Cc4ccccc4C3)cc2=O)CC1` [Compound 225, 4-(((6-(Isoindolin-2-ylmethyl)-4-oxo-4H-pyran-3-yl)oxy)methyl)-N,N-dimethyl-piperidine-1-sulfonamide] the value was less than 150 nM; for `CNS(=O)(=O)c1ccc(COc2coc(CN3Cc4ccccc4C3)cc2=O)cc1` [Compound 8, 4-(((6-(Isoindolin-2-ylmethyl)-4-oxo-4H-pyran-3-yl)oxy)methyl)-N-methylbenzenesulfonamide], less than 150 nM; for `O=c1cc(CN2Cc3ccccc3C2)occ1OCc1ccc(-n2cc(Br)cn2)cc1` [Compound 39, 5-((4-(4-Bromo-1H-pyrazol-1-yl)benzyl)oxy)-2-(isoindolin-2-ylmethyl)-4H-pyran-4-one], 150 to 300 nM. For `C=CC(=O)N1CCC(COc2coc(CN3Cc4ccccc4C3)cc2=O)CC1` [Compound 258, 5-((1-Acryloylpiperidin-4-yl)methoxy)-2-(isoindolin-2-ylmethyl)-4H-pyran-4-one] the value was 150 to 300 nM; for `COC(=O)c1ccc(COc2coc(CN3Cc4ccccc4C3)cc2=O)cc1` [Compound 60, Methyl 4-(((6-(isoindolin-2-ylmethyl)-4-oxo-4H-pyran-3-yl)oxy)methyl)benzoate], 301 to 2000 nM; for `CCS(=N)(=O)c1ccc(COc2coc(CN3Cc4ccccc4C3)cc2=O)cc1` (stereo not drawn) [Compound 101, 5-((4-(Ethylsulfonimidoyl)benzyl)oxy)-2-(isoindolin-2-ylmethyl)-4H-pyran-4-one], 150 to 300 nM. On to `O=c1cc(CN2Cc3ccccc3C2)occ1OCC1CCN(S(=O)(=O)C2CC2)CC1` [Compound 187, 5-((1-(Cyclopropylsulfonyl)piperidin-4-yl)methoxy)-2-(isoindolin-2-ylmethyl)-4H-pyran-4-one], for which the IC50 was less than 150 nM. As to `CC(C)CS(=O)(=O)N1CCC(COc2coc(CN3Cc4ccccc4C3)cc2=O)CC1` [Compound 271, 5-((1-(Isobutylsulfonyl)piperidin-4-yl)methoxy)-2-(isoindolin-2-ylmethyl)-4H-pyran-4-one], the IC50 is less than 150 nM. `COc1ccc(COc2coc(CN3Cc4ccccc4C3)cc2=O)cn1` [Compound 76, 2-(Isoindolin-2-ylmethyl)-5-((6-methoxypyridin-3-yl)methoxy)-4H-pyran-4-one]: the IC50 lay within 301 to 2000 nM.

On to `CS(=O)(=O)N1CCC(COc2coc(CN3Cc4ccccc4C3)cc2=O)CC1` [Compound 185, 2-(Isoindolin-2-ylmethyl)-5-((1-(methylsulfonyl)piperidin-4-yl)methoxy)-4H-pyran-4-one], for which the IC50 is less than 150 nM.

With `O=c1cc(CN2Cc3ccccc3C2)occ1OC[C@H]1CC[C@H](N2CCCS2(=O)=O)CC1` [Compound 216, 5-(((1r,4r)-4-(1,1-Dioxidoisothiazolidin-2-yl)cyclohexyl)methoxy)-2-(isoindolin-2-ylmethyl)-4H-pyran-4-one], the IC50 is less than 150 nM. For `CC(=O)N1CCC(CCOc2coc(CN3Cc4ccccc4C3)cc2=O)CC1` [Compound 206, 5-(2-(1-Acetylpiperidin-4-yl)ethoxy)-2-(isoindolin-2-ylmethyl)-4H-pyran-4-one] the value was 301 to 2000 nM. For `O=c1cc(CN2Cc3ccc(F)cc3C2)occ1OCc1ccc(C2(O)COC2)cc1` [Compound 115, 2-((5-Fluoroisoindolin-2-yl)methyl)-5-((4-(3-hydroxyoxetan-3-yl)benzyl)oxy)-4H-pyran-4-one] the value was less than 150 nM; for `O=C(COc1coc(CN2Cc3ccccc3C2)cc1=O)N1CCC(Cc2ccccc2)CC1` [Compound 155, 5-(2-(4-Benzylpiperidin-1-yl)-2-oxoethoxy)-2-(isoindolin-2-ylmethyl)-4H-pyran-4-one], 301 to 2000 nM; for `CNC(=O)c1ccc(COc2coc(CN3CCc4ccccc4C3)cc2=O)cc1` [Compound 48, 4-(((6-((3,4-Dihydroisoquinolin-2(1H)-yl)methyl)-4-oxo-4H-pyran-3-yl)oxy)-methyl)-N-methylbenzamide], 301 to 2000 nM. On to `CC(=O)N=S1(=O)CCC(COc2coc(CN3Cc4ccccc4C3)cc2=O)CC1` (stereo not drawn) [Compound 243, N-(4-(((6-(Isoindolin-2-ylmethyl)-4-oxo-4H-pyran-3-yl)oxy)methyl)-1-oxido-tetrahydro-2H-1λ^6-thiopyran-1-ylidene)acetamide], for which the half-inhibitory concentration (IC50) was in the range of 301 to 2000 nM. For `CN(C)C(=O)Cc1ccc(COc2coc(CN3Cc4ccccc4C3)cc2=O)cc1` [Compound 136, 2-(4-(((6-(Isoindolin-2-ylmethyl)-4-oxo-4H-pyran-3-yl)oxy)methyl)phenyl)-N,N-dimethylacetamide] the value was 150 to 300 nM; for `C[S@@](=N)(=O)c1ccc(COc2coc(CN3Cc4ccc(C(F)(F)F)cc4C3)cc2=O)cc1` [Compound 286, 5-((4-(R-Methylsulfonimidoyl)-benzyl)oxy)-2-((5-(trifluoromethyl)isoindolin-2-yl)methyl)-4H-pyran-4-one], less than 150 nM; for `CC(C)(C)OC(=O)N1CC[C@@H](COc2coc(CN3Cc4ccccc4C3)cc2=O)C1` [Compound 199, (R)-tert-Butyl 3-(((6-(isoindolin-2-ylmethyl)-4-oxo-4H-pyran-3-yl)oxy)methyl)-pyrrolidine-1-carboxylate], 150 to 300 nM. For `O=c1cc(CN2Cc3ccccc3C2)occ1OCc1ccc(-n2cccn2)cc1` [Compound 108, 5-((4-(1H-Pyrazol-1-yl)benzyl)oxy)-2-(isoindolin-2-ylmethyl)-4H-pyran-4-one] the value was 150 to 300 nM; for `O=c1cc(CN2Cc3ccccc3C2)occ1OCc1cccc([N+](=O)[O-])c1` [Compound 105, 2-(Isoindolin-2-ylmethyl)-5-((3-nitrobenzyl)oxy)-4H-pyran-4-one], 301 to 2000 nM; for `CCCCCCNC(=O)c1ccc(COc2coc(CN3Cc4ccccc4C3)cc2=O)cc1` [Compound 142, N-Hexyl-4-(((6-(isoindolin-2-ylmethyl)-4-oxo-4H-pyran-3-yl)oxy)methyl)-benzamide], 150 to 300 nM. For `CCN(CCO)S(=O)(=O)c1ccc(COc2coc(CN3Cc4ccccc4C3)cc2=O)cc1` [Compound 21, N-Ethyl-N-(2-hydroxyethyl)-4-(((6-(isoindolin-2-ylmethyl)-4-oxo-4H-pyran-3-yl)oxy)methyl)benzenesulfonamide] the value was less than 150 nM. Turning to `CN(C)C(=O)N1CCC(COc2coc(CN3Cc4ccccc4C3)cc2=O)C1` (stereo not drawn) [Compound 183, 3-(((6-(Isoindolin-2-ylmethyl)-4-oxo-4H-pyran-3-yl)oxy)methyl)-N,N-dimethyl-pyrrolidine-1-carboxamide], the IC50 was 301 to 2000 nM.

In the case of `O=C1NCc2cc(COc3coc(CN4Cc5ccccc5C4)cc3=O)ccc21` [Compound 180, 5-(((6-(Isoindolin-2-ylmethyl)-4-oxo-4H-pyran-3-yl)oxy)methyl)isoindolin-1-one], the IC50 is 150 to 300 nM. For `CN=S(C)(=O)c1ccc(COc2coc(CN3Cc4ccccc4C3)cc2=O)cc1` (stereo not drawn) [Compound 92, 5-((4-(N,S-Dimethylsulfonimidoyl)benzyl)oxy)-2-(isoindolin-2-ylmethyl)-4H-pyran-4-one], the IC50 was less than 150 nM. For `COC(=O)/C=C/c1ccc(COc2coc(CN3Cc4ccccc4C3)cc2=O)cc1` [Compound 2, Methyl (E)-3-(4-(((6-(isoindolin-2-ylmethyl)-4-oxo-4H-pyran-3-yl)oxy)-methyl)phenyl)acrylate] the value was less than 150 nM. For `CS(=O)(=O)N1CCC(COc2coc(CN3Cc4ccc([N+](=O)[O-])cc4C3)cc2=O)CC1` [Compound 207, 5-((1-(Methylsulfonyl)piperidin-4-yl)methoxy)-2-((5-nitroisoindolin-2-yl)methyl)-4H-pyran-4-one] the value was 301 to 2000 nM.
